Assays:
ERα or ERβ = assay: ERE-tk-Luc luciferase activation in U937 cells transfected with ERα or ERβ; assay type: cell-based; details: human monocytic U937 cells
Description: (§1) Plasmid Construction. […] ERβ mutants were created with QuikChange site-directed mutagenesis kits (Stratagene), by using oligonucleotides containing the mutation. The mutants were sequenced with Sequenase kits (Amersham Pharmacia) to verify the presence of the mutation.
(§2) U937 cells were maintained as described previously, whereas U2OS, MDA-MB435, and MCF-7 cells were maintained and subcultured in phenol red-free Dulbecco's modified Eagle's medium/F-12 media containing 5% fetal bovine serum, 2 mM glutamine, 50 units/ml penicillin, and 50 μg/ml streptomycin. For experiments, cells were collected, transferred to a cuvette, and then electroporated with a Bio-Rad gene pulser as described previously using 3 μg of reporter plasmid and 1 μg of ERα or ERβ expression vectors. After electroporation, the cells were re-suspended in media and plated at 1 ml/dish in 12-well multiplates. […] The concentration of hormone required to produce a half-maximal induction (EC50) or inhibition (IC50) of luciferase activity was calculated with the Prism curve-fitting program (Graph Pad Software, version 2.0b). […] The cells were plated in duplicate at a density of 25,000 cells/35-mm plate in tissue culture medium containing 3% stripped fetal bovine serum. […] After 8 days the cells were counted with a Coulter counter.

ERβ [1] = target: T1, ERβ (Homo sapiens, UniProt Q92731); details: in the presence of ERβ
T1 sequence (Q92731 whole entry): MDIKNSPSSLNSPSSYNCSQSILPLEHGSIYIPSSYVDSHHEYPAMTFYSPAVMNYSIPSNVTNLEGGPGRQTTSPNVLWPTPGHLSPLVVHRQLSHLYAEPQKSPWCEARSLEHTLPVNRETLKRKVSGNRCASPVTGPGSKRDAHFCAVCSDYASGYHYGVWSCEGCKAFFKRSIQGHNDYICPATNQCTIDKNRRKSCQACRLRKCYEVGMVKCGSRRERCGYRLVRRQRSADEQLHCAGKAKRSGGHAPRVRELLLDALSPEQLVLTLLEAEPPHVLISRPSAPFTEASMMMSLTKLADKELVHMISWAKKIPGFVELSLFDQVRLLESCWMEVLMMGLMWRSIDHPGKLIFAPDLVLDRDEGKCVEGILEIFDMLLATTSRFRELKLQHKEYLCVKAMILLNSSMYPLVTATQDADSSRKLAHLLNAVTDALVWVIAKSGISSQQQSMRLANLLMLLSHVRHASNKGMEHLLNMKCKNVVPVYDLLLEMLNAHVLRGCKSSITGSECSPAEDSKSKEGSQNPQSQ
Description: as §1, §2

ERβ [2] = target: T1, ERβ; assay: Repression of TNF-α activation of TNF-RE-tk-Luc in U2OS cells, ERβ; assay type: cell-based; set-up: expressed in transfected cells; host or cells: U2OS (human osteosarcoma)
Description: as §2
The extracts (a and b) were than decanted and only the soluble material was used.

TNF-RE-tk-Luc = assay: Antiestrogen effect on TNF-RE-tk-Luc (Example 2); assay type: cell-based; details: for effect on the repression induced by E2: TNF-RE-tk-Luc; for activation of TNF-RE-tk-Luc: antiestrogens, in contrast to E2
Description: as §1, §2

breast cancer = details: among 5129 women in the treatment group, median follow-up 40 months; cited from earlier work
[3] = test system: estrogen receptor-positive breast cancer; details: five years of therapy; cited from earlier work
[4] = test system: primary invasive breast cancer; details: women at high risk for breast cancer; cited from earlier work

SMILES	greater activation of the ERE in the presence of ERα compared to ERβ (ERα or ERβ) [fold]	repression of TNF-α activation of TNF-RE-tk-Luc (ERβ [1])	repression of TNF-α activation of TNF-RE (ERβ [2]) [%]	effect on the repression induced by E2 (TNF-RE-tk-Luc)	activation of TNF-RE-tk-Luc (TNF-RE-tk-Luc) [fold]	cases of breast cancer (breast cancer) [cases]	reduction of mortality from breast cancer [3] [%]	reduction of the risk of recurrences [3] [%]	reduction of the risk of primary invasive breast cancer [4] [%]
C[C@]12CC[C@@H]3c4ccc(O)cc4CC[C@H]3[C@@H]1CC[C@@H]2O [E2, estradiol]	10	60-80%	100						
C[C@]12CC[C@@H]3c4ccc(O)cc4C[C@@H](CCCCCCCCC[S+]([O-])CCCC(F)(F)C(F)(F)F)[C@H]3[C@@H]1CC[C@@H]2O (stereo partly shown) [ICI 182, 780]				abolished	2				
O=C(c1ccc(OCCN2CCCCC2)cc1)c1c(-c2ccc(O)cc2)sc2cc(O)ccc12 [raloxifene]				abolished	2	13			
CC/C(=C(\c1ccccc1)c1ccc(OCCN(C)C)cc1)c1ccccc1 [tamoxifen]				abolished	2		22	42	49
